According to US7595330B2, “Benzimidazole thiophene compounds” (SmithKline Beecham Corporation, priority 2005, dated 2009):
Like-named read-outs stand apart in the source and are kept apart here.

Columns and labels:
[1] = test system: human plasma proteins; test: Protein binding to human plasma proteins using equilibrium dialysis; assay type: in vitro ADME; conditions: pH 7.4, equilibrium dialysis 6 h, 37° C.
Experimental: III. Determination of Protein Binding to Human Plasma Proteins Using Equilibrium Dialysis
96 Well Plate (High Throughput Dialysis): Stock solutions of compounds were spiked into human plasma at a target concentration of 2000 ng/mL. The mixture was inverted gently several times to insure homogeneity and triplicate 50 μL aliquots were collected to verify initial concentrations. Following assembly of dialysis plate (HTDialysis membrane strips, molecular weight cut off limit of 12,000-14,000 daltons), spiked plasma (150 μL) was placed in the donor compartment of the well and Phosphate Buffered Saline pH 7.4 (150 μL) in the receiver compartment. Eight wells were set up per compound and plasma type. Plate was placed in a 37° C. incubator on a plate shaker. Following the 6 h incubation period, the plate was removed. Single 50 μL aliquots from each donor and receiver compartment (per well) were analyzed. Sample analysis was by LC/MS/MS (results reported as Drug Peak Area/Internal Standard Peak Area ratios). Protein binding assay can also be performed using dialysis cells instead of HT Dialysis 96 well plates. In Table 1, % Protein Binding, +=>98%; ++=95-98%: +++=<95%.

[2] = test system: HCT116; test: Methylene blue growth inhibition assay, HCT116; assay type: cell-based; conditions: Homo sapiens
Experimental: (§1) II. Methylene Blue Growth Inhibition Assay—Inhibition of Cell Proliferation by PLK1 Inhibitors
(§2) Generally, exponentially growing cell lines of different tumor origins, cultured in appropriate media containing 10% fetal bovine serum at 37° C. in a 5% CO2 incubator were plated at low density (less than 2000 cells/well) in 96-well plates. […]. Seventy two hours post-treatment, cell numbers were determined using 100 μl per well of methylene blue (Sigma M9140) (0.5% in 50:50 Ethanol:water). Stain was incubated at room temperature for 30 minutes before plates were rinsed and dye solubilized in 1% N-lauroyl sarcosine, sodium salt, (Sigma L5125, in PBS) (further details of a methylene blue assay are described below). Plates were read on a microplate reader, measuring the OD at 620 nm.
(§3) . The data are shown in Table 1 below and represent a compilation of several different experiments, each performed using the general parameters outlined above, although minor variations may have been employed in some instances.
(§4) In one assay, normal human foreskin fibroblasts (HFF), human colon (HCT116, RKO), lung (H460, A549) and breast (MCF7) tumor cell lines were cultured in high glucose DMEM (Life Technologies) containing 10% fetal bovine serum (FBS) at 37° C. in a humidified 5% CO2, 95% air incubator. Cells were harvested using trypsin/EDTA, counted using a haemocytometer, and plated in 100 μL of culture media per well, at the following densities, in a 96-well tissue culture plate (Falcon 3075): HFF 5,000 cells/well, HCT116 3,000 cells/well, RKO 2,500 cells/well, H460 2,500 cells/well, A549 5,000 cells/well, MCF7 4,000 cells/well. The next day, compounds were diluted in low glucose DMEM containing 100 μg/mL gentamicin, at twice the final required concentration, from 10 mM stock solutions in DMSO. 100 μL/well of these dilutions were added to the 100 μL of media currently in the assay plates. Medium containing 0.6% DMSO was added to control wells. The final concentration of DMSO in all wells was 0.3%. Cells were incubated at 37° C., 5% CO2 for 72 h. Medium was removed by aspiration. Cell biomass was estimated by staining cells with 80 μL per well methylene blue (Sigma M9140, 0.5% in 50:50 ethanol:water), and incubation at room temperature for 30-60 min. Stain was removed by aspiration and the plates rinsed by immersion in water, then air-dried. To release stain from the cells, 100 μL of solubilization solution was added (1% N-lauroyl sarcosine, Sodium salt, Sigma L5125, in PBS), and plates were shaken gently for about 30 min. Optical density at 620 nm was measured on a microplate reader. Percent inhibition of cell growth was calculated relative to vehicle treated control wells. […].

[3] = test system: RKO; test: Methylene blue growth inhibition assay, RKO; assay type: cell-based; conditions: Homo sapiens, 72 h
Experimental: as §1, §2, §3, §4

[4] = test system: MCF7; test: Methylene blue growth inhibition assay, MCF7; assay type: cell-based; conditions: Homo sapiens
Experimental: as §1, §2, §3, §4

[5] = High throughput solubility assay; assay type: physicochemical; conditions: aqueous buffer, pH 7.4, 0.05M phosphate buffer
Experimental: IV. High Throughput Solubility Assay
Two samples are prepared for each compound. One (the standard sample) contains the compound at a fixed concentration of 20 μM in an aqueous/organic mixed solvent cocktail. The other (the test sample) contains the compound at a maximum concentration of 200 μM in pH 7.4, 0.05M phosphate buffer and shaking for 24 h. The test sample is filtered by 0.45μ filter and then spun for 10 min to remove any undissolved solid. HPLC analyses are preformed on these samples. The peak areas are used for computing solubility.

[6] = test system: normal human foreskin fibroblasts (HFF); test: Methylene blue growth inhibition assay, HFF; assay type: cell-based; conditions: Fibroblast, 72 h
Experimental: as §1, §2, §3, §4

[7] = test system: A549; test: Methylene blue growth inhibition assay, A549; assay type: cell-based; conditions: Homo sapiens
Experimental: as §1, §2, §3, §4

[8] = test system: H460; test: Methylene blue growth inhibition assay, H460; assay type: cell-based; conditions: Homo sapiens
Experimental: as §1, §2, §3, §4

[9] = biological target: T1, PLK1 kinase domain (Homo sapiens, UniProt P53350); test: Assay for inhibition of PLK1 (SPA, 33P-ATP, biotinylated peptide substrate); assay type: biochemical; conditions: 1 μM ATP, 2 nM PLK1 kinase domain; read-out: PLK1 pIC50 (converted)
T1 construct: made in house; host or cells: baculovirus infected T. ni cells
Experimental: I. Assay for Inhibition of PLK1
All procedures were performed at 4° C. Cells were lysed in 50 mM HEPES, 200 mM NaCl, 50 mM imidazole, 5% glycerol; pH 7.5. The homogenate was centrifuged at 14K rpm in a SLA-1500 rotor for 1 h and the supernatant filtered through a 1.2 micron filter. The supernatant was loaded onto a Nickel chelating Sepharose (Amersham Pharmacia) column and washed with lysis buffer. Protein was eluted using 20%, 30% and 100% buffer B steps where buffer B is 50 mM HEPES, 200 mM NaCl, 300 mM imidazole, 5% glycerol; pH 7.5. Fractions containing PLK were determined by SDS-PAGE. Fractions containing PLK were diluted five-fold with 50 mM HEPES, 1 mM DTT, 5% glycerol; pH 7.5, then loaded on an SP Sepharose (Amersham Pharmacia) column. After washing the column with 50 mM HEPES, 1 mM DTT, 5% glycerol; pH 7.5, PLK was step eluted with 50 mM HEPES, 1 mM DTT, 500 mM NaCl; 5% glycerol; pH 7.5. PLK was concentrated using a 10 kDa molecular weight cutoff membrane and then loaded onto a Superdex 200 gel filtration (Amersham Pharmacia) column equilibrated in 25 mM HEPES, 1 mM DTT, 500 mM NaCl, 5% glycerol; pH 7.5. Fractions containing PLK were determined by SDS-PAGE. PLK was pooled, aliquoted and stored at −80° C. Samples were quality controlled using mass spectrometry, N-terminal sequencing and amino acid analysis.
B. Enzyme activity +/− inhibitors was determined as follows: All measurements were obtained under conditions where signal production increased linearly with time and enzyme. Test compounds were added to white 384-well assay plates (0.1 μL for 10 μL and some 20 μL assays, 1 μL for some 20 μL assays) at variable known concentrations in 100% DMSO. DMSO (1-5% final, as appropriate) and EDTA (65 mM in reaction) were used as controls.
Reaction Mix (10 or 20 μL) was quickly added to each well immediately following addition of enzyme via automated liquid handlers and incubated 1-1.5 h at 22° C. The 20 μL enzymatic reactions were stopped with 50 μL of stop mix (50 mM EDTA, 4.0 mg/ml Streptavidin SPA beads in Standard Dulbecco's PBS (without Mg^2+ and Ca^2+), 50 μM ATP) per well. The 10 μL reactions were stopped with 10 μL of stop mix (50 mM EDTA, 3.0 mg/mL Streptavidin-coupled SPA Imaging Beads (“LeadSeeker”) in Standard Dulbecco's PBS (without Mg^2+ and Ca^2+), 50 μM ATP) per well. Plates were sealed with clear plastic seals, spun at 500×g for 1 min or settled overnight, and counted in Packard TopCount for 30 seconds/well (regular SPA) or imaged using a Viewlux imager (LeadSeeker SPA). Signal above background (EDTA controls) was converted to percent inhibition relative to that obtained in control (DMSO-only) wells.

[10] = HCT-116, methylene blue, 72 h, HCT116, read-out: HCT116 IC50
[11] = methylene blue, read-out: RKO IC50
[12] = methylene blue, 72 h, MCF7, read-out: MCF7 IC50
[13] = methylene blue, HFF normal fibroblasts, read-out: HFF IC50
[14] = methylene blue, 72 h, A549, read-out: A549 IC50
[15] = NCI-H460, methylene blue, 72 h, H460, read-out: H460 IC50

T1 sequence (P53350 21-346): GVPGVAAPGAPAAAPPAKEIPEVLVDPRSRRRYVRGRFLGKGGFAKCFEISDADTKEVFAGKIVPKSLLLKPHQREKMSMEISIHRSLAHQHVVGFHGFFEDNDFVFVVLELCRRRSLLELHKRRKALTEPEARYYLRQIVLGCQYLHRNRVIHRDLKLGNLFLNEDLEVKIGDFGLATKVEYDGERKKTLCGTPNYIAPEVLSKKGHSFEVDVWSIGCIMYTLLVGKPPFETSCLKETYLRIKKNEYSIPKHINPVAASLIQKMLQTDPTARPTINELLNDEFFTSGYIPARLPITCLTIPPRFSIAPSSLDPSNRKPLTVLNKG

| SMILES | fraction unbound at 6 h, 2000 ng/mL [1] | IC50 [2, 10] [µM] | IC50 [3, 11] [µM] | IC50 [4, 12] [µM] | solubility at 24 h [5] [µM] | IC50 [6, 13] [µM] | IC50 [7, 14] [µM] | IC50 [8, 15] [µM] | IC50 [9] [µM] | IC50 ([2]; HCT-116, 72 h, read-out: HCT116 IC50 (μM)) [µM] | IC50 ([3]; read-out: RKO IC50 (μM)) [µM] | IC50 ([4]; MCF7, 72 h, read-out: MCF7 IC50 (μM)) [µM] | IC50 ([6]; read-out: HFF IC50 (μM)) [µM] | IC50 ([7]; A549, 72 h, read-out: A549 IC50 (μM)) [µM] | IC50 ([8]; NCI-H460, 72 h, read-out: H460 IC50 (μM)) [µM] |
| --- | --- | --- | --- | --- | --- | --- | --- | --- | --- | --- | --- | --- | --- | --- | --- |
| NC(=O)c1sc(-n2cnc3ccc(OCC4CCNCC4)cc32)cc1OCc1ccccc1C(F)(F)F [Com. Ex 143, reference compound] | > 0.05 | 0.1 to 1 | 0.1 to 1 | 0.1 to 1 | < 30 | > 1 | > 1 | > 1 | 0.01 to 1 | – | – | – | – | – | – |
| C[C@@H](Oc1cc(-n2cnc3ccc(CN4CCN(C)CC4)cc32)sc1C(N)=O)c1ccccc1Cl [Example 4, 3-{[(1R)-1-(2-Chlorophenyl)ethyl]oxy}-5-{6-[(4-methylpiperazin-1-yl)methyl]-1H-benzimidazol-1-yl}thiophene-2-carboxamide] | – | < 0.1 | < 0.1 | < 0.1 | > 100 | < 0.1 | < 0.1 | < 0.1 | < 0.01 | – | – | – | – | – | – |
| C[C@@H](Oc1cc(-n2cnc3ccc(OC4CCN(C)CC4)cc32)sc1C(N)=O)c1ccccc1C(F)(F)F [Example 7, 5-{6-[(1-Methyl-4-piperidinyl)oxy]-1H-benzimidazol-1-yl}-3-({(1R)-1-[2-(trifluoromethyl)phenyl]ethyl}oxy)-2-thiophenecarboxamide] | > 0.05 | – | – | – | > 100 | – | – | – | – | – | – | – | – | – | – |
| C[C@@H](Oc1cc(-n2cnc3ccc(CS(C)(=O)=O)cc32)sc1C(N)=O)c1ccccc1C(F)(F)F [Example 1, 5-{6-[(Methylsulfonyl)methyl]-1H-benzimidazol-1-yl}-3-({(1R)-1-[2-(trifluoromethyl)phenyl]ethyl}oxy)-2-thiophenecarboxamide] | 0.02 to 0.05 | < 0.1 | < 0.1 | < 0.1 | 30 to 100 | 0.1 to 1 | < 0.1 | < 0.1 | < 0.01 | – | – | – | – | – | – |
| CS(=O)(=O)c1ccc2ncn(-c3cc(OCc4ccccc4C(F)(F)F)c(C(N)=O)s3)c2c1 [Com. Ex 121, reference compound] | 0.02 to 0.05 | > 1 | > 1 | > 1 | – | > 1 | > 1 | > 1 | 0.01 to 1 | – | – | – | – | – | – |
| COc1cc2ncn(-c3cc(OCc4ccccc4C(F)(F)F)c(C(N)=O)s3)c2cc1OCCN1CCN(C)CC1 [Com. Ex 136, reference compound] | > 0.05 | 0.1 to 1 | 0.1 to 1 | 0.1 to 1 | – | > 1 | – | 0.1 to 1 | 0.01 to 1 | – | – | – | – | – | – |
| C[C@@H](Oc1cc(-n2cnc3ccc(OC4CCNCC4)cc32)sc1C(N)=O)c1ccccc1Cl [Example 6, 3-{[(1R)-1-(2-Chlorophenyl)ethyl]oxy}-5-[6-(4-piperidinyloxy)-1H-benzimidazol-1-yl]-2-thiophenecarboxamide] | > 0.05 | < 0.1 | < 0.1 | – | > 100 | 0.1 to 1 | < 0.1 | < 0.1 | < 0.01 | – | – | – | – | – | – |
| COc1cc2ncn(-c3cc(OC(C)c4ccccc4Cl)c(C(N)=O)s3)c2cc1OC (stereo not drawn) [Com. Ex 126, reference compound] | < 0.02 | – | – | – | – | – | – | – | – | < 0.1 | < 0.1 | > 1 | 0.1 to 1 | < 0.1 | < 0.1 |
| C[C@@H](Oc1cc(-n2cnc3ccc(OC4CCN(C)CC4)cc32)sc1C(N)=O)c1ccccc1Cl [Example 8, 3-{[(1R)-1-(2-Chlorophenyl)ethyl]oxy}-5-{6-[(1-methyl-4-piperidinyl)oxy]-1H-benzimidazol-1-yl}-2-thiophenecarboxamide] | > 0.05 | – | – | – | > 100 | – | – | – | – | – | – | – | – | – | – |
